Experimental data as given in patent US5641775A, “3-phenylureido-1,5-benzodiazepine-diones useful as gastrin or antagonists” (Glaxo SpA, priority 1993, dated 1997).

Columns and labels:
CCK-A receptor = assay: CCK receptor binding, CCK-A receptor (Pancreas Assay), Dal Forno procedure
Protocol: (§1) The greater affinity of the compounds of the invention for the CCK-B receptor over the CCK-A receptor has also been established using the CCK receptor binding assays described by G Dal Fornos et al., J. Pharmcol. Exp & Ther. 261, 1056-1063, 1992.
(§2) The binding affinity of the compounds of the invention for the CCK-A receptor (Pancreas Assay) and CCK-B receptor (guinea pig cortex assay) was determined using the procedure of G Dal Forno et al J. Pharmacol. Exp & Ther. 261-1056-1063. The pKi values determined with respresentative compounds of invention were as follows: […]

CCK-B receptor = target: T1, CCK-B receptor (Cavia porcellus, UniProt H0VZC5); assay: CCK receptor binding, CCK-B receptor (guinea pig cortex assay), Dal Forno procedure; details: read-out: pKi CCK-B (converted)
T1 construct: CCK-B receptor (guinea pig cortex assay); from tissue; host or cells: guinea pig cortex
T1 sequence (H0VZC5 entry or part of it): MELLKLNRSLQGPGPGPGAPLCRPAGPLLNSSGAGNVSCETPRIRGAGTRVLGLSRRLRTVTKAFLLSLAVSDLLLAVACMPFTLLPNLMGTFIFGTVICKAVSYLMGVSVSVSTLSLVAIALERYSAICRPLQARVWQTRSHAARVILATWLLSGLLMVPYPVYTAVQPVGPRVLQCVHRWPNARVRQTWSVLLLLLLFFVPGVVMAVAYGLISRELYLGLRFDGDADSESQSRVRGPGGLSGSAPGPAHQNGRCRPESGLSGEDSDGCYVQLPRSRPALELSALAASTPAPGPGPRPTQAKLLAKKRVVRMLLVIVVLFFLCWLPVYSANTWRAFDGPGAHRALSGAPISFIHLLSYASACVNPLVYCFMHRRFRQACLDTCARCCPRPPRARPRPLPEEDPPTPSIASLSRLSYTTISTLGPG
Protocol: as §1, §2

How did the “pKi CCK-A” value (CCK-A receptor) turn out when `O=C(Nc1cccc(-c2nn[nH]n2)c1)NC1C(=O)N(CCC2CCCC2)c2ccccc2N(c2ccccc2F)C1=O` (single isomer, unassigned; (+)) [Example 4, (+)-N-[1-(Cyclopentylethyl)-2,4-dioxo-5-(2-fluorophenyl)-2,3,4,5-tetrahydro-1H-benzodiazepin-3-yl]-N'-(3-tetrazolyl)phenylurea] was run?
The value was 6.63.

And the Ki (CCK-B receptor)?
Its Ki is 0.105 nM.

What does the source list for `O=C(Nc1cccc(-c2nn[nH]n2)c1)NC1C(=O)N(CCC2CCCC2)c2ccccc2N(c2ccccc2F)C1=O` (single isomer, unassigned; (-)) [Example 5, (-)-N-[1-(Cyclopentylethyl)-2,4-dioxo-5-(2-fluorophenyl)-2,3,4,5-tetrahydro-1H-benzodiazepin-3-yl]-N'-(3-tetrazolyl)phenylurea]?
pKi CCK-A (CCK-A receptor): 6.51; Ki (CCK-B receptor): 0.269 nM

For `CC(C)(C)CCN1C(=O)C(NC(=O)Nc2cccc(-c3nnn[nH]3)c2)C(=O)N(c2ccccc2)c2ccccc21` (stereo not drawn) [Example 3, N-[1-(3,3-Dimethylbutyl)-2,4-dioxo-5-phenyl-2,3,4,5-tetrahydro-1H-1,5-benzodiazepine-3-yl]-N'[3-(5-tetrazolyl)-phenyl]urea], which “pKi CCK-A” value (CCK-A receptor) is on record?
Its value is 7.64.

And the Ki (CCK-B receptor)?
The Ki was 0.288 nM.
